{"source": "patent US20050244490A1", "about": "“Dosing methods for beta-D-2',3'-dideoxy-2',3'-didehydro-5-fluorocytidine antiviral therapy” (priority 2003, published 2005)", "key": {"[1]": {"system": "HIV viral load", "assay": "Viral load decline on repeated dosing, β-D-D4FC and competing nucleosides", "format": "in vivo", "details": "50 mg QD, duration of dosing 10"}, "[2]": {"assay": "Cytotoxicity, MTT reduction", "format": "cell-based", "details": "read-out: TC50", "experimental": "Cytotoxicity was measured by reduction of the formazan dye MTT, which is catalyzed by mitochondrial succinate dehydrogenase."}, "[3]": {"assay": "clinical", "details": "in vivo"}, "[4]": {"system": "AZT/3TC-resistant HIV-1 recombinant viruses", "assay": "microbe, parasite or virus in culture", "format": "cell-based", "experimental": "A panel of 22 viruses was constructed in the HXB2 background using the Protease and RT sequences from clinical isolates to determine Virco Profiling against recombinant clinical isolates (see FIGS. 7a and 7b). Viruses contained 2 to 17 mutations in RT frequently associated with nucleoside resistance, including: M184V, M41L, D67N, T215Y. IC50 values were determined using a high through-put reporter virus assay."}, "[5]": {"system": "plasma HIV-1 RNA", "format": "in vivo", "details": "for reduction of viral load: 48 hours", "experimental": "The study consisted of a double-blind, randomized, placebo-controlled, three-period crossover, dose escalation design in HIV-infected male subjects. Five dose levels (10, 25, 50, 100, and 200 mg) were administered in three cohort studies. Seven days elapsed between the end of one cohort and the start of the next dosing period."}, "[6]": {"assay": "Food effect, fed versus fasted crossover (Cohort 4)", "details": "for AUC / AUC(0-inf) / CL/F / Cmax / half-life / Tmax: human, plasma, oral, 100 mg, PART B; for AUC: AUC(0-τ); for CL/F: CLtot/F; for half-life: t1/2 λz"}, "[7]": {"details": "100 MG FED, coated tablet after high fat meal"}}, "note": "“And” between values parts separate entries of the source, which are not always exact repeats. Equal entries are not always repeated. Where two headings read alike, the source gives them in different places."}
{"smiles": "Nc1nc(=O)n(C2C=CC(CO)O2)cc1F", "note": "[β-D-D4FC, β-D-2′,3′-Didehydro-2′,3′-dideoxy-5-fluorocytidine]", "values": [{"measurement": "Viral Load Decline (log)", "setting": "[1]", "value": "−1.67", "unit": "log"}, {"measurement": "CC50 at 96 h", "setting": "[2]; African green monkey, Vero cells", "value": "> 100", "unit": "µM"}, {"measurement": "CC50 at 144 h", "setting": "[2]; PBMCs", "value": "> 100", "unit": "µM"}, {"measurement": "CC50 at 30 h", "setting": "[2]; hamster, BHK-21 cells", "value": "> 30", "unit": "µM"}, {"measurement": "CC50 at 24 h", "setting": "[2]; human, 293 cells", "value": "> 30", "unit": "µM"}, {"measurement": "CC50 at 48 h", "setting": "[2]; human, Huh7 cells", "value": "> 30", "unit": "µM"}, {"measurement": "CC50 at 72 h", "setting": "[2]; human, MT-2 cells", "value": "> 220", "unit": "µM"}, {"measurement": "half-life", "setting": "[3]", "value": "6 to 15", "unit": "h"}, {"measurement": "target value of parent compound for >90% suppression", "setting": "[4]; AZT, 3TC and co-resistant variants", "value": 5, "unit": "µM"}, {"measurement": "IC90", "setting": "[4]; Human immunodeficiency virus 1, read-out: Average IC90 for AZT/3TC-R virus", "value": 5.5, "unit": "µM"}, {"measurement": "activity against multi-drug resistant strains", "setting": "[4]; Q151M or D69S insertions plus at least 5 additional mutations", "value": "only weakly active"}, {"measurement": "suppression of most mutant variants tested", "setting": "[4]; at 5 μM in vitro", "value": "≥ 90", "unit": "%"}, {"measurement": "clinically significant HIV mutant strains inhibited", "setting": "[4]; including AZT and 3TC resistant variants", "value": "more than 80%"}, {"measurement": "reduction in activity", "setting": "[4]; recombinant viruses with as many as 10 mutations incl. M41L, M184V, D67N, L74V, K70R, T215Y or K219Q", "value": "less than 5 fold"}, {"measurement": "drop in viral load, subject with mutant virus L41+N103+C181+W210+D215", "setting": "[5]; 10 mg", "value": 0.61, "unit": "log10"}, {"measurement": "reduction of viral load", "setting": "[5]; 10 mg dose", "value": "0.42±0.2 log10 and 0.42 log10"}, {"measurement": "Change in Plasma HIV-1 RNA", "setting": "[5]; 10 mg, 12 h", "value": "0.05 ± 0.09", "unit": "log10"}, {"measurement": "Change in Plasma HIV-1 RNA", "setting": "[5]; 10 mg, 24 h", "value": "−0.12 ± 0.14", "unit": "log10"}, {"measurement": "Change in Plasma HIV-1 RNA", "setting": "[5]; 10 mg, 48 h", "value": "−0.42 ± 0.20", "unit": "log10"}, {"measurement": "drop in viral load, subject with mutant virus L41+N103+C181+W210+D215", "setting": "[5]; 25 mg", "value": 0.43, "unit": "log10"}, {"measurement": "Change in Plasma HIV-1 RNA", "setting": "[5]; 25 mg, 12 h", "value": "0.03 ± 0.09", "unit": "log10"}, {"measurement": "Change in Plasma HIV-1 RNA", "setting": "[5]; 25 mg, 24 h", "value": "−0.13 ± 0.10", "unit": "log10"}, {"measurement": "Change in Plasma HIV-1 RNA", "setting": "[5]; 25 mg, 48 h", "value": "−0.34 ± 0.26", "unit": "log10"}, {"measurement": "Change in Plasma HIV-1 RNA", "setting": "[5]; 100 mg, 12 h", "value": "−0.03 ± 0.08", "unit": "log10"}, {"measurement": "Change in Plasma HIV-1 RNA", "setting": "[5]; 100 mg, 24 h", "value": "−0.15 ± 0.14", "unit": "log10"}, {"measurement": "Change in Plasma HIV-1 RNA", "setting": "[5]; 100 mg, 48 h", "value": "−0.44 ± 0.17", "unit": "log10"}, {"measurement": "reduction of viral load", "setting": "[5]; 100 mg", "value": "0.44±0.17"}, {"measurement": "Change in Plasma HIV-1 RNA", "setting": "[5]; 200 mg, 12 h", "value": "−0.02 ± 0.24", "unit": "log10"}, {"measurement": "Change in Plasma HIV-1 RNA", "setting": "[5]; 200 mg, 24 h", "value": "−0.06 ± 0.22", "unit": "log10"}, {"measurement": "Change in Plasma HIV-1 RNA", "setting": "[5]; 200 mg, 48 h", "value": "−0.27 ± 0.28", "unit": "log10"}, {"measurement": "Change in Plasma HIV-1 RNA", "setting": "[5]; 50s mg (solution), 12 h", "value": "0.00 ± 0.00", "unit": "log10"}, {"measurement": "Change in Plasma HIV-1 RNA", "setting": "[5]; 50s mg (solution), 24 h", "value": "−0.11 ± 0.07", "unit": "log10"}, {"measurement": "Change in Plasma HIV-1 RNA", "setting": "[5]; 50s mg (solution), 48 h", "value": "−0.44 ± 0.02", "unit": "log10"}, {"measurement": "Change in Plasma HIV-1 RNA", "setting": "[5]; 50t mg (tablet), 12 h", "value": "0.05 ± 0.07", "unit": "log10"}, {"measurement": "Change in Plasma HIV-1 RNA", "setting": "[5]; 50t mg (tablet), 24 h", "value": "−0.08 ± 0.07", "unit": "log10"}, {"measurement": "Change in Plasma HIV-1 RNA", "setting": "[5]; 50t mg (tablet), 48 h", "value": "−0.46 ± 0.25", "unit": "log10"}, {"measurement": "average reduction of viral load", "setting": "[5]; 24 hour time point", "value": "0.11±0.11"}, {"measurement": "mean reduction of viral load after a single oral dose", "setting": "[5]; all dose levels, up to 48 hours", "value": "0.4±0.2 log10 and 0.42±0.2 log10"}, {"measurement": "mean reduction of viral load after a single oral dose", "setting": "[5]; various dosage levels, 24 and 48 hours", "value": "approximately 40%"}, {"measurement": "Cmax and AUC values in the fed regimen as fraction of the fasted regimen", "setting": "[6]; 100 mg coated tablets, high fat meal", "value": "less than 1/10"}, {"measurement": "AUC", "setting": "[6]; 100 MG FASTED, coated tablet", "value": 6110, "unit": "ng·h/mL"}, {"measurement": "AUC", "setting": "[6]; [7]", "value": 542, "unit": "ng·h/mL"}, {"measurement": "AUC(0-inf)", "setting": "[6]; 100 MG FASTED, coated tablet", "value": 6170, "unit": "ng·h/mL"}, {"measurement": "AUC(0-inf)", "setting": "[6]; [7]", "value": 643, "unit": "ng·h/mL"}, {"measurement": "CL/F", "setting": "[6]; 100 MG FASTED, coated tablet", "value": 478, "unit": "mL/min"}, {"measurement": "CL/F", "setting": "[6]; [7]", "value": 3380, "unit": "mL/min"}, {"measurement": "Cmax", "setting": "[6]; 100 MG FASTED, coated tablet", "value": 1160, "unit": "ng/mL"}, {"measurement": "Cmax", "setting": "[6]; [7]", "value": 90, "unit": "ng/mL"}, {"measurement": "half-life", "setting": "[6]; 100 MG FASTED, coated tablet", "value": 8.61, "unit": "h"}, {"measurement": "half-life", "setting": "[6]; [7]", "value": 4.38, "unit": "h"}, {"measurement": "Tmax", "setting": "[6]; 100 MG FASTED, coated tablet", "value": 1.83, "unit": "h"}, {"measurement": "Tmax", "setting": "[6]; [7]", "value": 2.5, "unit": "h"}]}
